The text below walks through data of BindingDB's records for doi:10.7270/Q2VT1QQ4 (Burnham Center For Chemical Genomics, 2012).

In this test the target is T1, Xylosyl- and glucuronyltransferase LARGE1 (Homo sapiens, UniProt O95461).
T1 sequence (O95461 whole entry): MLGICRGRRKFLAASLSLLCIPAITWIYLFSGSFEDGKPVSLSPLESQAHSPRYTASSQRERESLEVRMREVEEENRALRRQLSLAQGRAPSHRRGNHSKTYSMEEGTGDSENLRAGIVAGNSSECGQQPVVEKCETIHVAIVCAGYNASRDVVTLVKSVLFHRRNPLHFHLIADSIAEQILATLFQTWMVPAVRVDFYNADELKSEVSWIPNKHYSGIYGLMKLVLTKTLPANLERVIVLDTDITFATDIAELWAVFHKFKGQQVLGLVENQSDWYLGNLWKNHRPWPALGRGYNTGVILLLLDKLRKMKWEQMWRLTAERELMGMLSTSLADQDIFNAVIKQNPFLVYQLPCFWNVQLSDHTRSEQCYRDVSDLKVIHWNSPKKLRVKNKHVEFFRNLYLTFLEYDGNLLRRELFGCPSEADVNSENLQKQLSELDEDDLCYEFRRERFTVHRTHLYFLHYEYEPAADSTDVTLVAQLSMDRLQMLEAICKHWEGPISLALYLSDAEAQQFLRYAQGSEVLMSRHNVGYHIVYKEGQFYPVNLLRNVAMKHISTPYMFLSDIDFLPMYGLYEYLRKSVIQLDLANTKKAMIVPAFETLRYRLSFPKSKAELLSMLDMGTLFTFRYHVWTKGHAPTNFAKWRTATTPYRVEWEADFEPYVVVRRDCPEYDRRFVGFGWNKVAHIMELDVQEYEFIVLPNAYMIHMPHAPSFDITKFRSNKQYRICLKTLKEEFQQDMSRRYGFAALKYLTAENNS

For `Oc1c(Cl)c(N=Cc2ccco2)c(O)c2ccccc12` [2-chloranyl-3-(furan-2-ylmethylamino)naphthalene-1,4-dione], the EC50 was 4.97 µM.

What is called EC50 is the concentration at which the effect is half-maximal.
